Test results: patent publication US6852673B2, “Herbicidal pyridine compounds” (BASF Aktiengesellschaft, priority 1998, dated 2005)

Legend:
Type in all cases: in vivo
[1] = tested on: Triticum aestivum (TRZAW); test: Pre-emergence herbicidal evaluation, winter wheat
How it was run: (§1)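 Soil-surface spray of sown pots, about 0.0125 to 0.4 kg/ha, aqueous acetone carrier. Scored visually on a rating scale 2 to 4 weeks post-treatment.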

[2] = tested on: Cassia obtusifolia (CASOB); test: Post-emergence herbicidal evaluation, sicklepod; details: rated 2 to 4 weeks after treatment
Method: (§2) [table] [table] […] These acetone solutions are diluted with water and the resulting formulations applied at dosage levels equivalent of about 0.03 to 0.4 kg per hectare of test compound per pot. After spraying the plants are placed on greenhouse benches and are cared for in the usual manner, commensurate with conventional greenhouse practices. From 2 to 4 weeks after treatment, the seedling plants are examined and rated according to the rating system provided above. A rating 0 indicates growth as untreated control, a rating 9 indicates death.

[3] = tested on: Stellaria media (STEME); test: Pre-emergence herbicidal evaluation, chickweed
How it was run: as §1

[4] = tested on: Cassia obtusifolia (CASOB); test: Pre-emergence herbicidal evaluation, sicklepod
From the text: The pre-emergence herbicidal activity of the compounds of the present invention is exemplified by the following test in which the seeds of a variety of monocotyledonous and dicotyledonous plants are seperately mixed with potting soil and planted on top of approximately one inch of soil in separate pots. After planting, the pots are sprayed with the selected aqueous acetone solution containing test compound in sufficient quantity to provide the equivalent of about 0.0125 to 0.4 kg per hectare of test compound per pot. The treated pots are then placed on greenhouse benches, watered and cared for in accordance with conventional greenhouse procedures. From 2 to 4 weeks after treatment, the tests are terminated and each pot is examined and rated according to the rating system set forth below.

[5] = tested on: Galium aparine (GALAP); test: Pre-emergence herbicidal evaluation, cleaver
How it was run: as §1

[6] = tested on: Setaria viridis (SETVI); test: Post-emergence herbicidal evaluation, green foxtail; details: for SETVI rating: rated 2 to 4 weeks after treatment; for grass control such as Setaria virides: in barley at crop selective doses
Method: as §2

[7] = tested on: Ambrosia artemiisifolia (AMBEL); test: Post-emergence herbicidal evaluation, ragweed; details: rated 2 to 4 weeks after treatment
Method: as §2

[8] = tested on: Galium aparine (GALAP); test: Post-emergence herbicidal evaluation, cleaver; details: rated 2 to 4 weeks after treatment
Method: as §2

[9] = tested on: Alopecurus myosuroides (ALOMY); test: Post-emergence herbicidal evaluation, black grass; details: rated 2 to 4 weeks after treatment
Method: as §2

[10] = tested on: Digitaria sanguinalis (DIGSA); test: Pre-emergence herbicidal evaluation, large crabgrass
How it was run: as §1

[11] = tested on: weeds; test: Post-emergence herbicidal evaluation, overall weed control; details: in barley at crop selective doses
Method: as §2

SMILES	TRZAW rating ([1]; dose 0.013 kg/ha)	TRZAW rating ([1]; dose 0.025 kg/ha)	TRZAW rating ([1]; dose 0.1 kg/ha)	TRZAW rating ([1]; dose 0.4 kg/ha)	CASOB rating ([2]; dose 0.03 kg/ha)	CASOB rating ([2]; dose 0.4 kg/ha)	STEME rating ([3]; dose 0.1 kg/ha)	STEME rating ([3]; dose 0.4 kg/ha)	GALAP rating ([5]; dose 0.013 kg/ha)	GALAP rating ([5]; dose 0.025 kg/ha)	GALAP rating ([5]; dose 0.1 kg/ha)	GALAP rating ([5]; dose 0.4 kg/ha)	SETVI rating ([6]; dose 0.1 kg/ha)	SETVI rating ([6]; dose 0.4 kg/ha)	AMBEL rating ([7]; dose 0.1 kg/ha)	AMBEL rating ([7]; dose 0.4 kg/ha)	GALAP rating ([8]; dose 0.1 kg/ha)	GALAP rating ([8]; dose 0.4 kg/ha)	ALOMY rating ([9]; dose 0.1 kg/ha)	ALOMY rating ([9]; dose 0.4 kg/ha)	also measured
Cc1cc(OC/C=C/C(F)(F)F)nc(Oc2cc(C(F)(F)F)nn2C)c1 [Example 1, (E)-2-(1-Methyl-3-trifluoromethylpyrazol-5-yloxy)-4-methyl-6-(4,4,4-trifluorobut-2-enyloxy)pyridine]	1 (1 - Trace effect)	1 (1 - Trace effect)	3 (3 - Moderate effect)	4 (4 - Injury)	5 (5 - Definite injury)	5 (5 - Definite injury)	9 (9 - Complete kill)	9 (9 - Complete kill)	1 (1 - Trace effect)	2 (2 - Slight effect)	7 (7 - Good herbicidal effect)	9 (9 - Complete kill)	8 (8 - Approaching complete kill)	8 (8 - Approaching complete kill)	7 (7 - Good herbicidal effect)	7 (7 - Good herbicidal effect)	8 (8 - Approaching complete kill)	8 (8 - Approaching complete kill)	8 (8 - Approaching complete kill)	8 (8 - Approaching complete kill)	CASOB rating ([2]; dose 0.1 kg/ha): 5 (5 - Definite injury); activity against Stellaria [3]: superior activity; STEME rating ([3]; dose 0.013 kg/ha): 5 (5 - Definite injury); STEME rating ([3]; dose 0.025 kg/ha): 9 (9 - Complete kill); CASOB rating ([4]; dose 0.013 kg/ha): 0 (0 - No effect); CASOB rating ([4]; dose 0.025 kg/ha): 9 (9 - Complete kill); CASOB rating ([4]; dose 0.1 kg/ha): 9 (9 - Complete kill); CASOB rating ([4]; dose 0.4 kg/ha): 9 (9 - Complete kill); SETVI rating ([6]; dose 0.03 kg/ha): 5 (5 - Definite injury); AMBEL rating ([7]; dose 0.03 kg/ha): 6 (6 - Herbicidal effect); GALAP rating ([8]; dose 0.03 kg/ha): 7 (7 - Good herbicidal effect); ALOMY rating ([9]; dose 0.03 kg/ha): 6 (6 - Herbicidal effect)
Cc1cc(OCC(F)(F)C(F)F)nc(Oc2cc(C(F)(F)F)nn2C)c1 [Example 6]	0 (0 - No effect)	0 (0 - No effect)	1 (1 - Trace effect)	2 (2 - Slight effect)	–	6 (6 - Herbicidal effect)	9 (9 - Complete kill)	9 (9 - Complete kill)	1 (1 - Trace effect)	1 (1 - Trace effect)	5 (5 - Definite injury)	8 (8 - Approaching complete kill)	3 (3 - Moderate effect)	6 (6 - Herbicidal effect)	4 (4 - Injury)	6 (6 - Herbicidal effect)	6 (6 - Herbicidal effect)	7 (7 - Good herbicidal effect)	6 (6 - Herbicidal effect)	8 (8 - Approaching complete kill)	CASOB rating ([2]; dose 0.25 kg/ha): 4 (4 - Injury); CASOB rating ([4]; dose 0.4 kg/ha): 9 (9 - Complete kill); SETVI rating ([6]; dose 0.25 kg/ha): 2 (2 - Slight effect); grass control such as Setaria virides [6]: effective; DIGSA rating ([10]; dose 0.013 kg/ha): 1 (1 - Trace effect); DIGSA rating ([10]; dose 0.025 kg/ha): 2 (2 - Slight effect); DIGSA rating ([10]; dose 0.1 kg/ha): 9 (9 - Complete kill); DIGSA rating ([10]; dose 0.4 kg/ha): 9 (9 - Complete kill); AMBEL rating ([7]; dose 0.25 kg/ha): 3 (3 - Moderate effect); GALAP rating ([8]; dose 0.25 kg/ha): 3 (3 - Moderate effect); ALOMY rating ([9]; dose 0.25 kg/ha): 2 (2 - Slight effect); broad-leaved weed control [11]: effective
Cc1cc(OCC(F)(F)C(F)(F)C(F)(F)C(F)F)nc(Oc2cc(C(F)(F)F)nn2C)c1 [Example 8]	0 (0 - No effect)	0 (0 - No effect)	1 (1 - Trace effect)	3 (3 - Moderate effect)	2 (2 - Slight effect)	7 (7 - Good herbicidal effect)	9 (9 - Complete kill)	9 (9 - Complete kill)	1 (1 - Trace effect)	1 (1 - Trace effect)	6 (6 - Herbicidal effect)	8 (8 - Approaching complete kill)	6 (6 - Herbicidal effect)	8 (8 - Approaching complete kill)	8 (8 - Approaching complete kill)	8 (8 - Approaching complete kill)	7 (7 - Good herbicidal effect)	8 (8 - Approaching complete kill)	7 (7 - Good herbicidal effect)	8 (8 - Approaching complete kill)	CASOB rating ([2]; dose 0.1 kg/ha): 7 (7 - Good herbicidal effect); STEME rating ([3]; dose 0.013 kg/ha): 1 (1 - Trace effect); STEME rating ([3]; dose 0.025 kg/ha): 4 (4 - Injury); SETVI rating ([6]; dose 0.03 kg/ha): 3 (3 - Moderate effect); grass control such as Setaria virides [6]: effective; DIGSA rating ([10]; dose 0.013 kg/ha): 1 (1 - Trace effect); DIGSA rating ([10]; dose 0.025 kg/ha): 2 (2 - Slight effect); DIGSA rating ([10]; dose 0.1 kg/ha): 9 (9 - Complete kill); DIGSA rating ([10]; dose 0.4 kg/ha): 9 (9 - Complete kill); AMBEL rating ([7]; dose 0.03 kg/ha): 5 (5 - Definite injury); GALAP rating ([8]; dose 0.03 kg/ha): 5 (5 - Definite injury); ALOMY rating ([9]; dose 0.03 kg/ha): 2 (2 - Slight effect); broad-leaved weed control [11]: effective
